The values below come from PubChem BioAssay AID602260 (Sanford-Burnham Center for Chemical Genomics, 2012).

Activity calls are given as the source filed them.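 The calls were made as follows: active = mean IC50 at or below 20 µM; inactive = the rest.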

Sequence of Polyadenylate-binding protein 1 (Homo sapiens) (P11940 whole entry, looked up): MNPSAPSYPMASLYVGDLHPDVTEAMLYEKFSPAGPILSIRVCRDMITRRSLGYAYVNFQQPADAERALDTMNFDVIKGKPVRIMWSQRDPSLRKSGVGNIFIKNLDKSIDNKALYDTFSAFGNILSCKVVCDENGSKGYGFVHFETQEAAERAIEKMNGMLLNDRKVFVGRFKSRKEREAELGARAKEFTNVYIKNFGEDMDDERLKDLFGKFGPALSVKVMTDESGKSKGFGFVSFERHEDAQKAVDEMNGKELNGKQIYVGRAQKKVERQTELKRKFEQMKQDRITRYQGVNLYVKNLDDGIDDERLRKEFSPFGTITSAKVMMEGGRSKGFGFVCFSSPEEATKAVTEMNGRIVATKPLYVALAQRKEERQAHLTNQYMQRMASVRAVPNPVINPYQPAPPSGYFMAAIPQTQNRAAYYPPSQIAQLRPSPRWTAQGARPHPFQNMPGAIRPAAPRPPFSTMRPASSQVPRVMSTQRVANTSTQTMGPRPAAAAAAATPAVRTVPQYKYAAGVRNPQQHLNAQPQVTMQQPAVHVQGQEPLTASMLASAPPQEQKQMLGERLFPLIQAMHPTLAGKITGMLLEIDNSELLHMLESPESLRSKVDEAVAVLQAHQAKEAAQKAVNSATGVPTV

This assay concerns the target Polyadenylate-binding protein 1 (Homo sapiens) (UniProt P11940). Kind of assay: PABP1 MLLE–PAM2 interaction inhibitors, dose response, miRNA deadenylation inhibitor project, biochemical, fluorescence polarization, Cy5-PAM2 peptide, secondary (AID 602260). To be noted: GST-Mlle / Cy5-PAM2 peptide fluorescence polarization. (Fluorescence polarisation rises when a labelled molecule tumbles more slowly, as on binding a larger partner.)
A word on the IC50: it is the point on the concentration scale where inhibition reaches its midpoint. As to `COc1ccc(NC(=O)Nc2ccc([N+](=O)[O-])cc2)cn1`, the IC50 entry is “inactive”.
Turning to `CCOC(=O)c1c(/N=C/c2cccc([N+](=O)[O-])c2O)sc(C)c1C`, the IC50 result was “inactive”.
The value for `C[c-]1[c-](C)[c-](C)[c-](C)[c-]1C.[Fe].c1cc2nccc(N3CCCC3)[c-]2c1` (stereo not drawn) was > 66 µM (inactive).
